Values joined by “and” are separate entries in the source; they are usually repeats but may differ in a detail not shown here. Equal values may be shown once.
Key:
BT-474 = assay: normalised viability (% of control), CellTiter-Blue; higher = more viable cells (about 100 = DMSO control); details: incubation time: 72 h
Method: (§1)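 DSRT, CellTiter-Blue viability, 72 h incubation. Signal is normalised to DMSO and benzethonium chloride controls. Value is the normalised response at dose 3.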

BT-549 [1] = assay: as above; details: incubation time: 72 h
Method: as §1

CAL-120 = assay: as above; details: incubation time: 72 h
Method: as §1

CAL-148 = assay: as above; details: incubation time: 72 h
Method: as §1

CAL-51 = assay: as above; details: incubation time: 72 h
Method: as §1

CAL-85-1 [2] = assay: as above; details: incubation time: 72 h
Method: as §1

DU-4475 [3] = assay: as above; details: incubation time: 72 h
Method: as §1

HCC1599 [4] = assay: as above; details: incubation time: 72 h
Method: as §1

HCC1937 = assay: as above; details: incubation time: 72 h
Method: as §1

HDQ-P1 = assay: as above; details: incubation time: 72 h
Method: as §1

Hs578T [5] = assay: as above; details: incubation time: 72 h
Method: as §1

MDA-MB-231 [6] = assay: as above; details: 100 nM; incubation time: 72 h
Method: as §1

MDA-MB-436 = assay: as above; details: incubation time: 72 h
Method: as §1

MDA-MB-453 [7] = assay: as above; details: incubation time: 72 h
Method: as §1

MDA-MB-468 [8] = assay: as above; details: incubation time: 72 h
Method: as §1

MFM-223 [9] = assay: as above; details: incubation time: 72 h
Method: as §1

SK-BR-3 = assay: as above; details: incubation time: 72 h
Method: as §1

BT-549 [10] = assay: drug sensitivity score (DSS), CellTox Green (DSS (AUC-based score)); higher = stronger drug effect (viability inhibition or cytotoxicity); extreme values may be limits of the assay; details: incubation time: 72 h
Outline: (§2)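 Compound was dispensed into 384-well plates at 5 concentrations in 10-fold steps spanning a 10,000-fold range chosen for each compound, and 20 µl of breast cancer cell suspension was added before 72 h of incubation. CellTox Green fluorescence was read at 485/520 nm, followed by CellTiter-Glo luminescence after 10 min at room temperature. Values on each plate were normalised to 0.1 % DMSO and a positive kill control. The drug sensitivity score came from the area under the fitted dose-response curve.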

CAL-85-1 [11] = assay: as above; details: incubation time: 72 h
Outline: as §2

DU-4475 [12] = assay: as above; details: incubation time: 72 h
Outline: as §2

HCC1599 [13] = assay: as above; details: incubation time: 72 h
Outline: as §2

Hs578T [14] = assay: as above; details: incubation time: 72 h
Outline: as §2

MDA-MB-231 [15] = assay: as above; details: incubation time: 72 h
Outline: as §2

MDA-MB-453 [16] = assay: as above; details: incubation time: 72 h
Outline: as §2

MDA-MB-468 [17] = assay: as above; details: incubation time: 72 h
Outline: as §2

MFM-223 [18] = assay: as above; details: incubation time: 72 h
Outline: as §2

| Structure (SMILES) | normalised viability (BT-474; 100 nM) | normalised viability (BT-549 [1]; 100 nM) | normalised viability (CAL-120; 100 nM) | normalised viability (CAL-148; 10 nM) | normalised viability (CAL-51; 10 nM) | normalised viability (CAL-85-1 [2]; 10 nM) | normalised viability (HCC1599 [4]; 100 nM) | normalised viability (HCC1937; 100 nM) | normalised viability (HDQ-P1; 10 nM) | normalised viability (Hs578T [5]; 100 nM) | normalised viability (MDA-MB-231 [6]) | drug sensitivity score (BT-549 [10]) | drug sensitivity score (CAL-85-1 [11]) | drug sensitivity score (DU-4475 [12]) | drug sensitivity score (HCC1599 [13]) | drug sensitivity score (Hs578T [14]) | drug sensitivity score (MDA-MB-231 [15]) | drug sensitivity score (MDA-MB-453 [16]) | drug sensitivity score (MDA-MB-468 [17]) | drug sensitivity score (MFM-223 [18]) | further results |
| --- | --- | --- | --- | --- | --- | --- | --- | --- | --- | --- | --- | --- | --- | --- | --- | --- | --- | --- | --- | --- | --- |
| CO[C@@H](C(=O)N1Cc2[nH]nc(NC(=O)c3ccc(N4CCN(C)CC4)cc3)c2C1)c1ccccc1 [Danusertib] | 80.8% | 102% | 64.8% | 79.9% | 105% | 93.6% | 77.2% | 99.9% | 104% | 67.1% | 79% | 1.26 | 0 | 0 | 0 | 15.2 | 0 | 0 | 13.7 | 0 | normalised viability (DU-4475 [3]; 10 nM): 91%; normalised viability (MDA-MB-436; 100 nM): 95.1%; normalised viability (MDA-MB-453 [7]; 10 nM): 79.6%; normalised viability (MDA-MB-468 [8]; 100 nM): 59.4%; normalised viability (MFM-223 [9]; 100 nM): 44%; normalised viability (SK-BR-3; 100 nM): 62.4% |
| Cc1nc(Nc2ncc(C(=O)Nc3c(C)cccc3Cl)s2)cc(N2CCN(CCO)CC2)n1 [Dasatinib] |  |  |  |  |  |  |  |  |  |  |  | 2.37 | 6.5 | 0 | 0 | 6.23 | 4.62 | 0 | 0 | 0 | normalised viability (BT-474; 10 nM): 117% and 108%; normalised viability (BT-549 [1]; 10 nM): 91.5% and 93.8%; normalised viability (CAL-120; 10 nM): 93.2% and 80.5%; normalised viability (CAL-148; 1 nM): 98.7% and 85.7%; normalised viability (CAL-51; 1 nM): 100% and 106%; normalised viability (CAL-85-1 [2]; 1 nM): 100% and 99.7%; normalised viability (DU-4475 [3]; 1 nM): 105% and 111%; normalised viability (HCC1599 [4]; 10 nM): 105% and 123%; normalised viability (HCC1937; 10 nM): 87.7% and 94.3%; normalised viability (HDQ-P1; 1 nM): 92.8% and 87.5%; normalised viability (Hs578T [5]; 10 nM): 77.6% and 80.5%; normalised viability (MDA-MB-436; 10 nM): 102% and 88.7%; normalised viability (MDA-MB-453 [7]; 1 nM): 100%; normalised viability (MFM-223 [9]; 10 nM): 91.8% and 88%; normalised viability (SK-BR-3; 10 nM): 89.4% and 82.9% |
| O=S(=O)(c1cccc2cnccc12)N1CCCNCC1 [Fasudil] | 117% | 95.6% | 89.4% | 93.1% | 112% | 97.7% | 100% | 91.7% | 103% | 97.5% | 96% | 0 | 0 | 0 | 0 | 0 | 2.62 | 0 |  | 0 | normalised viability (DU-4475 [3]; 10 nM): 107%; normalised viability (MDA-MB-436; 100 nM): 100%; normalised viability (MDA-MB-453 [7]; 10 nM): 103%; normalised viability (MDA-MB-468 [8]; 100 nM): 106%; normalised viability (MFM-223 [9]; 100 nM): 93.6%; normalised viability (SK-BR-3; 100 nM): 86.2% |
| CS(=O)(=O)N1CCN(Cc2cc3nc(-c4cccc5[nH]ncc45)nc(N4CCOCC4)c3s2)CC1 [GDC-0941] | 102% | 92.8% | 75.5% | 85.6% | 109% | 90.7% | 69.2% | 99.1% | 101% | 89.1% | 83.2% |  |  |  |  |  |  |  |  |  | normalised viability (DU-4475 [3]; 10 nM): 108%; normalised viability (MDA-MB-436; 100 nM): 91.6%; normalised viability (MDA-MB-468 [8]; 100 nM): 84.2%; normalised viability (MFM-223 [9]; 100 nM): 82%; normalised viability (SK-BR-3; 100 nM): 58.7% |
| Cc1c(CN2CCN(C(=O)[C@H](C)O)CC2)sc2c(N3CCOCC3)nc(-c3cnc(N)nc3)nc12 [GDC-0980] | 90.2% | 81.9% | 71.7% | 96.2% | 101% | 100% | 67.8% | 76.7% | 94% | 82.2% | 59.2% | 0 | 2.26 | 0 | 0 | 0 | 0 | 0 | 0 | 6 | normalised viability (DU-4475 [3]; 10 nM): 92.7%; normalised viability (MDA-MB-436; 100 nM): 85.6%; normalised viability (MDA-MB-453 [7]; 10 nM): 96.1%; normalised viability (MDA-MB-468 [8]; 100 nM): 85.3%; normalised viability (MFM-223 [9]; 100 nM): 65.4%; normalised viability (SK-BR-3; 100 nM): 45.3% |
| COc1nc(N)nc2c1ncn2[C@@H]1O[C@H](CO)[C@@H](O)[C@@H]1O [Nelarabine] | 87.4% and 96.1% | 88.7% and 74.2% | 112% and 101% | 104% and 85.5% | 102% and 103% | 94.4% and 97.7% | 98.1% and 113% | 93.1% and 85.6% | 82.8% and 82.6% | 75.9% and 85.7% | 92.8% and 89.7% | 0.855 | 0 | 0 | 0 | 0 | 0 | 0 | 0 | 0 | normalised viability (MDA-MB-436; 100 nM): 90.6% and 83.6%; normalised viability (MDA-MB-453 [7]; 10 nM): 97.4% and 102%; normalised viability (MDA-MB-468 [8]; 100 nM): 104% and 97.9%; normalised viability (MFM-223 [9]; 100 nM): 103% and 101% |
| Cn1cc(CNCC2CCN(c3ncc(C(=O)NO)cn3)CC2)c2ccccc21 [Quisinostat] |  |  |  |  |  |  |  |  |  |  |  | 0 | 20.1 | 2.71 | 1.48 | 13.2 | 13.6 | 0.347 | 18.9 | 4.71 |  |
| CNC(=O)c1cc(Oc2ccc(NC(=O)Nc3ccc(Cl)c(C(F)(F)F)c3)cc2)ccn1 [Sorafenib] |  |  |  |  |  |  |  |  |  |  |  | 0 | 0 | 0 | 0 | 0 | 0 | 0 | 0 | 0 | normalised viability (BT-474; 10 nM): 114% and 99.3%; normalised viability (CAL-120; 10 nM): 102% and 96%; normalised viability (CAL-148; 1 nM): 102% and 90%; normalised viability (CAL-51; 1 nM): 114% and 99%; normalised viability (CAL-85-1 [2]; 1 nM): 96.3% and 109%; normalised viability (DU-4475 [3]; 1 nM): 118% and 131%; normalised viability (HCC1599 [4]; 10 nM): 113% and 129%; normalised viability (HCC1937; 10 nM): 83.9% and 84.5%; normalised viability (HDQ-P1; 1 nM): 105% and 91.4%; normalised viability (Hs578T [5]; 10 nM): 90% and 86.3%; normalised viability (MDA-MB-436; 10 nM): 110% and 113%; normalised viability (MDA-MB-453 [7]; 1 nM): 103% and 109%; normalised viability (MDA-MB-468 [8]; 10 nM): 114% and 97.8%; normalised viability (MFM-223 [9]; 10 nM): 94.7% and 95% |

Reference: the supplement of paper PMC4862054
